Source: article PMC8151276, “An Integrated Approach toward NanoBRET Tracers for Analysis of GPCR Ligand Engagement” (Molecules, 2021)

Tests used:
Type in all cases: binding
[1] = biological target: T1, OPRK1 (Homo sapiens, UniProt P41145); test: NanoBRET screen HiBiT-OPRK1 in HEK293; conditions: OPRK1
T1 construct: purchased Promega (in-house HiBiT-GPCR construct library, NanoBRET)
Description: (§1) Each tracer candidate was screened across the entire library of HiBiT-GPCR constructs using NanoBRET as the detection modality. As depicted in Figure 4A, the specificity of interactions was evaluated through decrease in BRET due to competitive displacement of a bound tracer by excess parental compound. Each tracer was analyzed for binding to each HiBiT-GPCR fusion in the absence and in the presence of competing parental compound. Briefly, HEK293 cells were transfected with HiBiT-GPCR constructs diluted into promoterless DNA to reduce expression and maximize translocation to the cell surface. Each tracer candidate was then screened at concentrations of 1 μM and 0.1 μM across cells expressing these fusions. Cells were treated for 1.5 h with tracer either alone or in the presence of 20 μM competing parental compound (i.e., control). BRET was measured upon addition of purified LgBiT and subsequent complementation with HiBiT genetically fused to a GPCR. The specificity of interactions was assessed through a decrease in BRET signal due to competitive displacement of the bound tracer. To further gauge the robustness of these interactions, the fold response over the control (i.e., BRETtracer/BRETcontrol) was calculated. We chose a 1.5-fold response, which translates to ≥7-fold signal over noise as the minimal threshold required to score an interaction as positive. […]. Below we highlight the screening results obtained for our exemplary fluorescent tracers based on Clozapine, Amitriptyline and AZD1283.
(§2) HiBiT-GPCR DNA constructs were diluted in 10 mM Tris pH 8 to a final concentration of 0.01 μg/μL, arrayed in 96-well plates and stored at −20 °C. For transfection, HEK293 cells were suspended in Opti-MEM (without phenol red) supplemented with 2% fetal bovine serum (Seradigm) and 100 units/mL penicillin–streptomycin (Gibco) at a final concentration of 220,000 cells/mL and dispensed into white 96-well plates at 90 μL/well. Subsequent transfections and screens were carried using an Agilent Bravo Automated Liquid Handling Platform. First, the 96-well HiBiT DNA arrays were diluted 25-fold in Opti-MEM (without serum or phenol red) to a final concentration of 0.0004 μg/μL and 20 μL of the diluted DNAs were transferred into new 96-well plates. Next, promoterless carrier DNA (1 μg/μL) was diluted 25-fold (0.04 μg/μL) and then dispensed into the diluted arrays at 20 μL/well. Following brief mixing, Viafect transfection reagent (Promega) diluted 16-fold into Opti-MEM was dispensed into the plates at 40 μL/well. After mixing by pipetting, plates were incubated for 10 min on the pipetting station deck. The DNA-transfection reagent complexes were then added to plates containing cells. To facilitate the screen, 10 μL of DNA-transfection reagent complexes were added in duplicates to the top 4 and bottom 4 rows, resulting in two identical 48-well arrays per plate. Plates with transfected cells were incubated for 18–20 h at 37 °C/5% CO2. A screen of each tracer across the entire library using two different concentrations requires duplicate plates of transfected cells. Depending on the number of tracers being screened, transfections can be scaled up using the same ratios. The next day, for each tracer, four 20× screening solutions in tracer dilution buffer (Promega) were prepared: two duplicates at final concentration of 20 μM and two duplicates at a final concentration of 2 μM. A competing unmodified compound was added to one of each duplicate at a final concentration of 400 μM. The four resulting solutions were diluted 4-fold in Opti-MEM without serum or phenol red to generate 5× solutions (5 µM and 0.5 µM tracer +/− 100 μM competing compound). To screen the library, a BioTek MultiFlo FX liquid dispenser was used to dispense 22.5 µL of tracer solution to the top 4 rows and 22.5 µL tracer + competing compound solution to the 4 bottom rows. Plates were briefly mixed on an orbital shaker and incubated for 1.5 h at room temperature. […]

[2] = biological target: T2, ADRB1 (Homo sapiens, UniProt P08588); test: NanoBRET screen HiBiT-ADRB1 in HEK293; conditions: ADRB1
T2 construct: purchased Promega (in-house HiBiT-GPCR construct library, NanoBRET)

[3] = biological target: T3, AVPR1B (Homo sapiens, UniProt P47901); test: NanoBRET screen HiBiT-AVPR1B in HEK293; conditions: AVPR1B
T3 construct: purchased Promega (in-house HiBiT-GPCR construct library, NanoBRET)
T3 sequence (P47901 1-424): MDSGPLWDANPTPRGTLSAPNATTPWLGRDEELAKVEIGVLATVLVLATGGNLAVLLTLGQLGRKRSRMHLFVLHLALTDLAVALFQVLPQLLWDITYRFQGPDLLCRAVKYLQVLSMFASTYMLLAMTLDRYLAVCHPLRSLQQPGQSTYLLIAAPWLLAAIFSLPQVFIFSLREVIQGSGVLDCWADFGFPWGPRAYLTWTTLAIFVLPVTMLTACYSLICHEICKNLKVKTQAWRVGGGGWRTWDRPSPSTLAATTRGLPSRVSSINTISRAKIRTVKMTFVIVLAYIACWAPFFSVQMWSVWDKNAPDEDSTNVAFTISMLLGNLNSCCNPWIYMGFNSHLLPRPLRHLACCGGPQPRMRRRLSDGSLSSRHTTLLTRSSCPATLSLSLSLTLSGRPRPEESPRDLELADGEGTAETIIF
Description: as §1, §2

[4] = biological target: T4, NMUR1 (Homo sapiens, UniProt Q9HB89); test: NanoBRET screen HiBiT-NMUR1 in HEK293; conditions: NMUR1
T4 construct: purchased Promega (in-house HiBiT-GPCR construct library, NanoBRET)
T4 sequence (Q9HB89 1-426): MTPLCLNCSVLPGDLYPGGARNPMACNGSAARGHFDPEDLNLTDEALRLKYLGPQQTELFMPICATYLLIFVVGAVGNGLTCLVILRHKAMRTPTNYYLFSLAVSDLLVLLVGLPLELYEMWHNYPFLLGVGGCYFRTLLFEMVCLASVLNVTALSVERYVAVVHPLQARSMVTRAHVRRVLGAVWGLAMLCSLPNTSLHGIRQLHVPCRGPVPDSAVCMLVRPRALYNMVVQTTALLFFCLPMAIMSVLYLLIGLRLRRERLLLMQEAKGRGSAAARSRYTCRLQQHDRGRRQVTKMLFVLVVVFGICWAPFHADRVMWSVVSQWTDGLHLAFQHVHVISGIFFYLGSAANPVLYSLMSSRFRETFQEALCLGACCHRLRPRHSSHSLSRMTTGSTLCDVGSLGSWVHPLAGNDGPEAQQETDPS
Description: as §1, §2

[5] = biological target: T5, PTAFR (Homo sapiens, UniProt P25105); test: NanoBRET screen HiBiT-PTAFR in HEK293; conditions: PTAFR
T5 construct: purchased Promega (in-house HiBiT-GPCR construct library, NanoBRET)
Description: as §1, §2

T1 sequence (P41145 whole entry): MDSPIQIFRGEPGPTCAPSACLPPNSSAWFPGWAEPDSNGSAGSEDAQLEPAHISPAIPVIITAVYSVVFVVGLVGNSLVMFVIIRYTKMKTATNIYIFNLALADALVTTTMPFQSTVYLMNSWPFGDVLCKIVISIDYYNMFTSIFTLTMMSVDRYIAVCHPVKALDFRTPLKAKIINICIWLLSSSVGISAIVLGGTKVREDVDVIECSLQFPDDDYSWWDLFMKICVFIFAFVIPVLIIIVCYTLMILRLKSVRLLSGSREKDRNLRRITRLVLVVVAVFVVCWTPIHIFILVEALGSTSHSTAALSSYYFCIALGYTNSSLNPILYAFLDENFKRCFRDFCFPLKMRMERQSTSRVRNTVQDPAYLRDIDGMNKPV
T5 sequence (P25105 whole entry): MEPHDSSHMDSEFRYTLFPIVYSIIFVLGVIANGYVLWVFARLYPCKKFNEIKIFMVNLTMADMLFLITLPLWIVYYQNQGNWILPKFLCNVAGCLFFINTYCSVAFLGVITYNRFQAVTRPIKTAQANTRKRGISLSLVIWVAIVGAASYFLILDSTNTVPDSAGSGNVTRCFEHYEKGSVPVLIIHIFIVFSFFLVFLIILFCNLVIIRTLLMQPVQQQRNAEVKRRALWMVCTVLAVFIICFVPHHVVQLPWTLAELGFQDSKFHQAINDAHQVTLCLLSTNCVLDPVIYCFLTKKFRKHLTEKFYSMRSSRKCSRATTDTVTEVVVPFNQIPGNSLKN
T2 sequence (P08588 whole entry): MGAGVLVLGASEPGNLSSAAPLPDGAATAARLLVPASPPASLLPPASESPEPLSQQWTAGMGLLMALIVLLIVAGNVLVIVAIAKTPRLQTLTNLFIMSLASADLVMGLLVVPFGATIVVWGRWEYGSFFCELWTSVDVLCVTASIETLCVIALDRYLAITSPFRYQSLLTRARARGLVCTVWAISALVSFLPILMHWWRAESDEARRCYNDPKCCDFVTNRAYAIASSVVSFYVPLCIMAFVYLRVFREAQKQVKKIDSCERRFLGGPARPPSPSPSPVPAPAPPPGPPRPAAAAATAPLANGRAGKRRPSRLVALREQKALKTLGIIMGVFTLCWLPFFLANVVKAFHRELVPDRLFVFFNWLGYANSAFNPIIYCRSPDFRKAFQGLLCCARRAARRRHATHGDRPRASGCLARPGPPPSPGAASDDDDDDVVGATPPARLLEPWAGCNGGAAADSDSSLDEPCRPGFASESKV

SMILES | NanoBRET Fold Response ([1]; 0.1μM tracer) | NanoBRET Fold Response ([1]; 1μM tracer) | NanoBRET Fold Response ([2]; 0.1μM tracer) | NanoBRET Fold Response ([2]; 1μM tracer) | NanoBRET Fold Response ([3]; 0.1μM tracer) | NanoBRET Fold Response ([3]; 1μM tracer) | NanoBRET Fold Response ([4]; 0.1μM tracer) | NanoBRET Fold Response ([4]; 1μM tracer) | NanoBRET Fold Response ([5]; 0.1μM tracer) | NanoBRET Fold Response ([5]; 1μM tracer) | NanoBRET Fold Response ([1]; tracer 0.1μM) | NanoBRET Fold Response ([1]; tracer 1μM) | NanoBRET Fold Response ([2]; tracer 0.1μM) | NanoBRET Fold Response ([2]; tracer 1μM) | NanoBRET Fold Response ([3]; tracer 0.1μM) | NanoBRET Fold Response ([3]; tracer 1μM) | NanoBRET Fold Response ([4]; tracer 0.1μM) | NanoBRET Fold Response ([4]; tracer 1μM) | NanoBRET Fold Response ([5]; tracer 0.1μM) | NanoBRET Fold Response ([5]; tracer 1μM)
O=C(CCOCCOCCOCCOCCNC(=O)CCc1ccc2n1[B-](F)(F)[N+]1=C(c3ccc[nH]3)C=CC1=C2)NCCCN1CCN(C2=Nc3cc(Cl)ccc3Nc3ccccc32)CC1 [Clozapine-a-2-NB590] | 1.01 | 0.97 | 0.95 | 0.94 | 0.98 | 0.97 | 1.14 | 1.16 | 1.01 | 0.99 | – | – | – | – | – | – | – | – | – | –
CN1CCN(C2=Nc3cc(Cl)ccc3Nc3ccc(CNC(=O)CCOCCOCCOCCOCCNC(=O)CCc4ccc5n4[B-](F)(F)[N+]4=C(c6ccc[nH]6)C=CC4=C5)cc32)CC1 [Clozapine-b-2-NB590] | 0.99 | 0.96 | 0.99 | 1.02 | 0.98 | – | 0.98 | 0.94 | 1.01 | 1.14 | – | – | – | – | – | – | – | – | – | –
CN1CCN(C2=Nc3cc(Cl)ccc3N(CC(=O)NCCOCCOCCOCCOCCNC(=O)CCc3ccc4n3[B-](F)(F)[N+]3=C(c5ccc[nH]5)C=CC3=C4)c3ccccc32)CC1 [Clozapine-c-2-NB590] | 1.01 | 0.90 | 1.02 | 0.94 | 0.95 | 0.84 | 1.01 | 1.00 | 1.01 | 1.02 | – | – | – | – | – | – | – | – | – | –
O=C(CCOCCOCCOCCOCCNC(=O)CCc1ccc2n1[B-](F)(F)[N+]1=C(c3ccc[nH]3)C=CC1=C2)NCCCN1CCN(C2=Nc3ccccc3Oc3ccc(Cl)cc32)CC1 [Loxapine-a-2-NB590] | – | – | – | – | – | – | – | – | – | – | 1.03 | 0.95 | 0.97 | 0.97 | 1.06 | 0.96 | 1.02 | 1.21 | 1.10 | 1.09
O=C(CCc1ccc2n1[B-](F)(F)[N+]1=C(c3ccc[nH]3)C=CC1=C2)NCc1ccc(C(=O)NCCOCCC(=O)N[C@@H]2CC[C@@]3(O)[C@H]4Cc5ccc(O)c6c5[C@@]3(CCN4CC3CC3)[C@H]2O6)cc1 [Naltrexone-3-NB590] | – | – | – | – | – | – | – | – | – | – | 2.19 | 1.53 | 1.34 | 0.83 | 1.19 | 1.17 | 0.85 | 1.07 | 1.24 | 0.78
Cc1cc2c(s1)Nc1ccccc1N=C2N1CCN(CCCNC(=O)CCOCCOCCOCCOCCNC(=O)CCc2ccc3n2[B-](F)(F)[N+]2=C(c4ccc[nH]4)C=CC2=C3)CC1 [Olanzapine-a-2-NB590] | – | – | – | – | – | – | – | – | – | – | 0.92 | 1.16 | 1.01 | 0.97 | 1.03 | 1.17 | 0.98 | 1.00 | 1.00 | 0.99
O=C(CCc1ccc2n1[B-](F)(F)[N+]1=C(c3ccc[nH]3)C=CC1=C2)NCCOCCOCCNC(=O)OCCOCCN1CCN(C2=Nc3ccccc3Sc3ccccc32)CC1 [Quetiapine-a-2-NB590] | – | – | – | – | – | – | – | – | – | – | 0.94 | 0.97 | 1.00 | 0.91 | 0.86 | 1.01 | 1.01 | 0.81 | 1.05 | 1.13
Cc1nc2n(c(=O)c1CCN1CCC(c3noc4cc(F)ccc34)CC1)CCCC2OC(=O)NCCOCCOCCOCCOCCNC(=O)CCc1ccc2n1[B-](F)(F)[N+]1=C(c3ccc[nH]3)C=CC1=C2 (stereo not drawn) [Risperidone-2-NB590] | – | – | – | – | – | – | – | – | – | – | 0.96 | 0.99 | 0.98 | 1.05 | 1.06 | 0.98 | 1.04 | 0.97 | 1.00 | 1.10
CC(C)N(CC[C@H](c1ccccc1)c1cc(CCNC(=O)CCOCCOCCOCCOCCNC(=O)CCc2ccc3n2[B-](F)(F)[N+]2=C(c4ccc[nH]4)C=CC2=C3)ccc1O)C(C)C [Tolterodine-2-NB590] | – | – | – | – | – | – | – | – | – | – | 1.12 | 0.95 | 1.09 | 0.99 | 1.42 | 0.97 | 0.94 | 1.12 | 1.17 | 0.73
CC(C)N(CC[C@H](c1ccccc1)c1cc(CCNC(=O)c2ccc(CNC(=O)CCc3ccc4n3[B-](F)(F)[N+]3=C(c5ccc[nH]5)C=CC3=C4)cc2)ccc1O)C(C)C [Tolterodine-BZ-NB590] | – | – | – | – | – | – | – | – | – | – | 0.90 | 0.96 | 1.02 | 1.10 | 0.85 | 0.94 | 0.78 | 1.02 | 0.93 | 0.85
